This test deals with T1, hCaV2.2 (Homo sapiens, UniProt Q00975).
T1 construct: expressed in transfected cells; plasmids pCIN5-hCaV2.2, pCIH-hCaV β3, pCIP-α2δ1
The test can be described thus: hCaV2.2 assay, IonWorks planar array electrophysiology in stably transfected HEK293 cells. The test is classed as cell-based. Conditions: current elicited by the 1st depolarising pulse inhibited by 50%; HEK293 cells expressing human CaV2.2 alpha/beta3/alpha2delta1; read-out: mean pIC50 (tonic pIC50) (converted). As to the method: Compounds of the invention may be tested for in vitro biological activity in the hCaV2.2 assay in accordance with the following studies:
Stable cell lines expressing the human CaV2.2 α (als) subunit, along with the human […] and α2δ1 auxiliary subunits were created following sequential transfection and selection of human embryonic kidney (HEK293) cells. HEK293 cells were cultured in Dulbecco's modified Eagles media/F12 media (Invitrogen, Cat #041-95750V) containing 10% foetal bovine serum, with added L-glutamine (2 mM; Invitrogen, Cat #25030-024) and non-essential amino acids (5%; Invitrogen, Cat #11140-035). Initially HEK293 cells were transfected with two plasmid vectors for expression of the hCaV2.2 α subunit (pCIN5-hCaV2.2 which carries a neomycin resistance marker) and the hCaV β3 subunit (pCIH-hCaV β3 which carries a hygromycin resistance marker). Clonal cell lines were isolated following selection in media supplemented with 0.4 mg ml^−1 Geneticin G418 (Invitrogen, Cat #10131-027) and 0.1 mg ml^1 hygromycin (Invitrogen, Cat #10687-010). These clonal cell lines were assessed for Cav2.2α/β3-mediated current expression using the IonWorks planar array electrophysiology technology (described below). A clonal line was identified that gave a reasonable level of functional Cav2.2α/β3 current expression. This cell line was transfected with a plasmid vector for expression of the human […] subunit (pCIP-α2δ1 which carries a puromycin resistance marker) and clonal cell lines isolated following selection in media containing 0.62 μg ml^−1 puromycin (Sigma, Cat #P-7255), in addition to 0.4 mg ml^−1 Geneticin G418 and 0.1 mg ml^−1 hygromycin. Several cell lines were identified that gave robust levels of Cav2.2α/β3/α2δ1-mediated current expression and one of these was selected for compound profiling. Expression of all three subunits within this cell line was continuously maintained by the inclusion of G418 (0.4 mg ml^−1), hygromycin (0.1 mg ml^−1) and puromycin (0.62 μg ml^−1). Cells were maintained at 37° C. in a humidified environment containing 5% CO2 in air. Cells were liberated from the T175 culture flasks for passage and harvesting using TrpLE (Invitrogen, Cat #12604-013).
Cells were grown to 30-60% confluence in T175 flasks and maintained at 30° C. for 24 hrs prior to recording. Cells were lifted by removing the growth media, washing with Ca^2+ free PBS (Invitrogen, Cat #14190-094) and incubating with 3 ml of warmed (37° C.) TrpLE (Invitrogen, Cat #12604-013) for 6 minutes. Lifted cells were suspended in 10 ml of extracellular buffer. Cell suspension was then placed into a 15 ml tube and centrifuged for 2 minutes at 700 rpm. After centrifugation, the supernatant was removed and the cell pellet was resuspended in 4.5 ml of extracellular solution.
Currents were recorded at room temperature (21-23° C.) using the IonWorks planar array electrophysiology technology (Molecular Devices Corp.). Stimulation protocols and data acquisition were carried out using a microcomputer (Dell Pentium 4). In order to determine planar electrode hole resistances (Rp), a 10 mV, 160 ms potential difference was applied across each hole. These measurements were performed before cell addition. After cell addition a seal test was performed prior to antibiotic (amphotericin) circulation to achieve intracellular access. Leak subtraction was conducted in all experiments by applying a 160 ms hyperpolarizing (10 mV) prepulse 200 ms before the test pulses to measure leak conductance. Test pulses stepping from the holding potential (VH) of −90 mV to +10 mV were applied for 20 ms and repeated 10 times at a frequency of 10 Hz. In all experiments, the test pulse protocol was performed in the absence (pre-read) and presence (post-read) of a compound. Pre- and post-reads were separated by a compound addition followed by a 3-3.5 min incubation.
The intracellular solution contained the following (in mM): K-gluconate 120, KCl 20 mM, MgCl2 5, EGTA 5, HEPES 10, adjusted to pH 7.3. […]

Counter-ions that a name gives are not always drawn.

T1 sequence (Q00975 whole entry): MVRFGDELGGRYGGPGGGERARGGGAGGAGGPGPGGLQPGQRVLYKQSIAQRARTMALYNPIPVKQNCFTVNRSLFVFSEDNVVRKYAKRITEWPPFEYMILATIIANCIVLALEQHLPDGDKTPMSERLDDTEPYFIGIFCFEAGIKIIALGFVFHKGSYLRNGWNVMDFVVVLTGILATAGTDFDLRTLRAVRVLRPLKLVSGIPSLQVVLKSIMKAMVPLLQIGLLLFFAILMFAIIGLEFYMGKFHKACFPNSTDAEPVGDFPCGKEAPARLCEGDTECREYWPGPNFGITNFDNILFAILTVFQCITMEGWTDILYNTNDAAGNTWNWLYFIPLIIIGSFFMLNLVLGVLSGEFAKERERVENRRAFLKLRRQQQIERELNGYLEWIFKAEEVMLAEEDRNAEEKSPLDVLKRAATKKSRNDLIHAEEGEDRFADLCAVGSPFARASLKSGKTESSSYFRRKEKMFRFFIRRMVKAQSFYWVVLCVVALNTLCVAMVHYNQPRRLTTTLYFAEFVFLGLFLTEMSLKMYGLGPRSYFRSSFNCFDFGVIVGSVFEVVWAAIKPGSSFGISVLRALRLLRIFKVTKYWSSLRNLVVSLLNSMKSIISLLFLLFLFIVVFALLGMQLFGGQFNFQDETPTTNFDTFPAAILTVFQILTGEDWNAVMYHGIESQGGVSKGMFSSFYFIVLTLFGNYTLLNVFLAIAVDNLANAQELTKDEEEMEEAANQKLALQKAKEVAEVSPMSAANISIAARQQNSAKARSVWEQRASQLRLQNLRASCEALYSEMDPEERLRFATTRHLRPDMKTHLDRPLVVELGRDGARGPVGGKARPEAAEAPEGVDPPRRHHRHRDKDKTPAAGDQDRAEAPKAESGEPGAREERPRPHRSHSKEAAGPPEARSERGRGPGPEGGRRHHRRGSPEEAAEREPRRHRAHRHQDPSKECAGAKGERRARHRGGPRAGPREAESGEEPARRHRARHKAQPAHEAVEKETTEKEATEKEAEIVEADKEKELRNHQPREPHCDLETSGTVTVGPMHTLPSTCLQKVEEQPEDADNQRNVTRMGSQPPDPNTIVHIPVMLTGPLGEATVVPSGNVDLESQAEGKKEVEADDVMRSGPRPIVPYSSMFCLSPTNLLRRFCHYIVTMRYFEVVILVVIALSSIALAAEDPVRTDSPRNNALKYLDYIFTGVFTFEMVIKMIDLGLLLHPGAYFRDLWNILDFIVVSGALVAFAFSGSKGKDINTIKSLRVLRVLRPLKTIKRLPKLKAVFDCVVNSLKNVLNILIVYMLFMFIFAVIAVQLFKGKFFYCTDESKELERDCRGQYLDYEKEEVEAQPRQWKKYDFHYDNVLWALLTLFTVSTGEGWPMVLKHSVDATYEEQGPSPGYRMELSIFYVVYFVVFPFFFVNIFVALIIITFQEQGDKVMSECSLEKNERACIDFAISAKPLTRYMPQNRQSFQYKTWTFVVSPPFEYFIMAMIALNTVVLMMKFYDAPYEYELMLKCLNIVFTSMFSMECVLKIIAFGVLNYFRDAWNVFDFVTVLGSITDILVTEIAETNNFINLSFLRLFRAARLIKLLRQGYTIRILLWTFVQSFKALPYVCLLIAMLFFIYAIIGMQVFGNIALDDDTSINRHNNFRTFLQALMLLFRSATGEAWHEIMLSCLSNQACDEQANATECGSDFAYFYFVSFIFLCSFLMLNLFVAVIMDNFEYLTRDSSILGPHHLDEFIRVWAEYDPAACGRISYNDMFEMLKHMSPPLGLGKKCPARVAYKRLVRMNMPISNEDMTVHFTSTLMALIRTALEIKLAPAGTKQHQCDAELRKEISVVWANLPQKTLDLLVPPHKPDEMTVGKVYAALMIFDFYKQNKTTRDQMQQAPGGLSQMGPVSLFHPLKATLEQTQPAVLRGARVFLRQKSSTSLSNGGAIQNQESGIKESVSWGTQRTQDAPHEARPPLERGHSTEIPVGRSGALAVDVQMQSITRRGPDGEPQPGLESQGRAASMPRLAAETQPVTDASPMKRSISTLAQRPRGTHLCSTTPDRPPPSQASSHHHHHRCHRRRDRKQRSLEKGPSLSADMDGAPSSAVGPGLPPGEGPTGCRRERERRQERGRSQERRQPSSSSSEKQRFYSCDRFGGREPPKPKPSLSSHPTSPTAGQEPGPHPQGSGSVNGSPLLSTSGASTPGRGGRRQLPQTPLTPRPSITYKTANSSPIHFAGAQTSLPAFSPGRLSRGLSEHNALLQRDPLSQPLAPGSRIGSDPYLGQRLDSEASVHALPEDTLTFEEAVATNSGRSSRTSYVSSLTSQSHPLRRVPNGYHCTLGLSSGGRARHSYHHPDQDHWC

As for `Cc1cc(C#N)ccc1S(=O)(=O)N1CCN(C(=O)c2ccc(Cl)nc2C)[C@@H](C)C1` [Example 25, 4-({(3S)-4-[(6-Chloro-2-methyl-3-pyridinyl)carbonyl]-3-methyl-1-piperazinyl}sulfonyl)-3-methylbenzonitrile], the IC50 is not below 10 µM.
Turning to `C[C@H]1CN(S(=O)(=O)c2ccc(C(F)(F)F)cc2)CCN1C(=O)c1cncc(Br)c1` [Example 28, (2S)-1-[(5-Bromo-3-pyridinyl)carbonyl]-2-methyl-4-{[4-(trifluoromethyl)phenyl]sulfonyl}piperazine], the IC50 was not below 10 µM.
Then `Cc1ccc(C(=O)N2CCN(S(=O)(=O)c3ccc(C(F)(F)F)cc3)C[C@@H]2C)c(C)n1` [Example 29, (2S)-1-[(2,6-Dimethyl-3-pyridinyl)carbonyl]-2-methyl-4-{[4-(trifluoromethyl)phenyl]sulfonyl}piperazine], with not below 10 µM.
`Cc1cc(C#N)ccc1S(=O)(=O)N1CCN(C(=O)c2ccc(N(C)C)nc2C)[C@@H](C)C1` [Example 30, 4-[((3S)-4-{[6-(Dimethylamino)-2-methyl-3-pyridinyl]carbonyl}-3-methyl-1-piperazinyl)sulfonyl]-3-methylbenzonitrile hydrochloride]: the IC50 was not below 10 µM.
Next, `Cc1nc(N2CCOCC2)ccc1C(=O)N1CCN(S(=O)(=O)c2ccc(C(F)(F)F)cc2)C[C@@H]1C` [Example 34, 4-{6-Methyl-5-[((2S)-2-methyl-4-{[4-(trifluoromethyl)phenyl]sulfonyl}-1-piperazinyl)carbonyl]-2-pyridinyl}morpholine hydrochloride]: not below 10 µM.
Next, `Cc1cc(C#N)ccc1S(=O)(=O)N1CCN(C(=O)c2ccc(N3CCOCC3)nc2C)[C@@H](C)C1` [Example 35, 3-Methyl-4-[((3S)-3-methyl-4-{[2-methyl-6-(4-morpholinyl)-3-pyridinyl]carbonyl}-1-piperazinyl)sulfonyl]benzonitrile hydrochloride]: not below 10 µM.
Then `CNc1ccc(C(=O)N2CCN(S(=O)(=O)c3ccc(C#N)cc3C)C[C@@H]2C)c(C)n1` [Example 38, 3-Methyl-4-[((3S)-3-methyl-4-{[2-methyl-6-(methylamino)-3-pyridinyl]carbonyl}-1-piperazinyl)sulfonyl]benzonitrile], with not below 31.6 µM.
As for `Cc1nc(N2CCC2)ccc1C(=O)N1CCN(S(=O)(=O)c2ccc(C(F)(F)F)cc2)C[C@@H]1C` [Example 39, (2S)-1-{[6-(1-Azetidinyl)-2-methyl-3-pyridinyl]carbonyl}-2-methyl-4-{[4-(trifluoromethyl)phenyl]sulfonyl}piperazine hydrochloride], the IC50 was not below 31.6 µM.
Next, `Cc1cc(C#N)ccc1S(=O)(=O)N1CCN(C(=O)c2ccc(N3CCC3)nc2C)[C@@H](C)C1` [Example 40, 4-[((38)-4-{[6-(1-Azetidinyl)-2-methyl-3-pyridinyl]carbonyl}-3-methyl-1-piperazinyl)sulfonyl]-3-methylbenzonitrile hydrochloride]: not below 31.6 µM; `C[C@H]1CN(S(=O)(=O)c2ccc(C(F)(F)F)cc2)CCN1C(=O)c1ccc(N(C)C)nc1` [Example 41, N,N-Dimethyl-5-[((2S)-2-methyl-4-{[4-(trifluoromethyl)phenyl]sulfonyl}-1-piperazinyl)carbonyl]-2-pyridinamine hydrochloride]: not below 10 µM; `C[C@H]1CN(S(=O)(=O)c2ccc(C(F)(F)F)cc2)CCN1C(=O)c1ccc(N2CCOCC2)nc1` [Example 42, 4-{5-[((2S)-2-Methyl-4-{[4-(trifluoromethyl)phenyl]sulfonyl}-1-piperazinyl)carbonyl]-2-pyridinyl}morpholine hydrochloride]: not below 10 µM.
Next, `CNc1ccc(C(=O)N2CCN(S(=O)(=O)c3ccc(C(F)(F)F)cc3)C[C@@H]2C)cn1` [Example 44, Methyl-5-[((2S)-2-methyl-4-{[4-(trifluoromethyl)phenyl]sulfonyl}-1-piperazinyl)carbonyl]-2-pyridinamine hydrochloride]: not below 10 µM.
